Reference: ChEMBL document CHEMBL4196024, “Discovery of 2,4,6-trisubstitued pyrido[3,4-d]pyrimidine derivatives as new EGFR-TKIs” (Eur J Med Chem, 2018)
Each block holds one compound with its values, some of them ahead of it. The source made the active and inactive calls. The calls are words filed in the database; no cut-off is given here.

Tests used:
[1] = biological target: Epidermal growth factor receptor (Homo sapiens, UniProt P00533, L858R); assay: Inhibition of wild type EGFR L858R mutant (unknown origin) using Poly (Glu, Tyr) as substrate after 40 mins by kinase-Glo luminescence assay
Chain of Epidermal growth factor receptor (Homo sapiens, UniProt P00533, L858R) (P00533 25-1210 L858R limits assumed): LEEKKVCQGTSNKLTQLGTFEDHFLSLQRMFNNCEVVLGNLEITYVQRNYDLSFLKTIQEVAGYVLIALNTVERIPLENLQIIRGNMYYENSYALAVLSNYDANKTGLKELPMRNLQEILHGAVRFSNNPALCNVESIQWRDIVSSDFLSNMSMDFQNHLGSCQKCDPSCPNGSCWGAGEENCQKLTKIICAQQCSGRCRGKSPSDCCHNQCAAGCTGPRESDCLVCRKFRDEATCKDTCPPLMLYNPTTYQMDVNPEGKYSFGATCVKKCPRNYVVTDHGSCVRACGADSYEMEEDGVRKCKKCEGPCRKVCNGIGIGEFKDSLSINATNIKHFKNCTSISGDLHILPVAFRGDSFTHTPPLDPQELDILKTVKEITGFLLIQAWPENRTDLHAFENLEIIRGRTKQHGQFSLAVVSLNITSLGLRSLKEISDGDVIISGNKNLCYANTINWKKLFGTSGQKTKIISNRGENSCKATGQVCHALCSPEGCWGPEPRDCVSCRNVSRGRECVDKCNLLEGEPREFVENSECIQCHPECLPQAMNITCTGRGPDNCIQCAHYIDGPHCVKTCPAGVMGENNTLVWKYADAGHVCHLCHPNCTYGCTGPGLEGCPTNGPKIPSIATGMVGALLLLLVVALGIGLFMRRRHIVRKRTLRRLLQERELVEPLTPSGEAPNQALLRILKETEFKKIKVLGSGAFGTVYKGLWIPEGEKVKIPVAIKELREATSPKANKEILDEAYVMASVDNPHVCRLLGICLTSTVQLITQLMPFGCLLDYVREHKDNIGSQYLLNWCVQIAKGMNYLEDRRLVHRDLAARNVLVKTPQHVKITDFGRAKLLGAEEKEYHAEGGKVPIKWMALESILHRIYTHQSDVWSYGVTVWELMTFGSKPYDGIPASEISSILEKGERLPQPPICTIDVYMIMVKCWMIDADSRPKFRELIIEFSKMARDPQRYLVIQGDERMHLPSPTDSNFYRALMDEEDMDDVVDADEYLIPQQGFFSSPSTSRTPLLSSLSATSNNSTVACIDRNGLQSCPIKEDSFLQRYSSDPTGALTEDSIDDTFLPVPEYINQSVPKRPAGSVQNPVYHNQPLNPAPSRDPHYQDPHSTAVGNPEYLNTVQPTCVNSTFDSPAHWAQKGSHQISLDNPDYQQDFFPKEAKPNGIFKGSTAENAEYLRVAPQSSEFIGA

[2] = system: NCI-H1975; assay: Antiproliferative activity against human NCI-H1975 cells harboring EGFR L858R/T790M double mutant after 72 hrs by MTT assay; type: functional, cell-based; conditions: NCI-H1975, 72 h
[3] = biological target: Epidermal growth factor receptor (Homo sapiens, UniProt P00533, L858R/T790M); assay: Inhibition of wild type EGFR L858R/T790M double mutant (unknown origin) using Poly (Glu, Tyr) as substrate after 40 mins by kinase-Glo luminescence assay
[4] = system: A549; assay: Antiproliferative activity against human A549 cells harboring wild type EGFR after 72 hrs by MTT assay; type: cell-based; conditions: A549, 72 h
[5] = biological target: Epidermal growth factor receptor (Homo sapiens, UniProt P00533); assay: Inhibition of wild type EGFR (unknown origin) using Poly (Glu, Tyr) as substrate after 40 mins by kinase-Glo luminescence assay
Chain of Epidermal growth factor receptor (Homo sapiens, UniProt P00533) (P00533 whole entry): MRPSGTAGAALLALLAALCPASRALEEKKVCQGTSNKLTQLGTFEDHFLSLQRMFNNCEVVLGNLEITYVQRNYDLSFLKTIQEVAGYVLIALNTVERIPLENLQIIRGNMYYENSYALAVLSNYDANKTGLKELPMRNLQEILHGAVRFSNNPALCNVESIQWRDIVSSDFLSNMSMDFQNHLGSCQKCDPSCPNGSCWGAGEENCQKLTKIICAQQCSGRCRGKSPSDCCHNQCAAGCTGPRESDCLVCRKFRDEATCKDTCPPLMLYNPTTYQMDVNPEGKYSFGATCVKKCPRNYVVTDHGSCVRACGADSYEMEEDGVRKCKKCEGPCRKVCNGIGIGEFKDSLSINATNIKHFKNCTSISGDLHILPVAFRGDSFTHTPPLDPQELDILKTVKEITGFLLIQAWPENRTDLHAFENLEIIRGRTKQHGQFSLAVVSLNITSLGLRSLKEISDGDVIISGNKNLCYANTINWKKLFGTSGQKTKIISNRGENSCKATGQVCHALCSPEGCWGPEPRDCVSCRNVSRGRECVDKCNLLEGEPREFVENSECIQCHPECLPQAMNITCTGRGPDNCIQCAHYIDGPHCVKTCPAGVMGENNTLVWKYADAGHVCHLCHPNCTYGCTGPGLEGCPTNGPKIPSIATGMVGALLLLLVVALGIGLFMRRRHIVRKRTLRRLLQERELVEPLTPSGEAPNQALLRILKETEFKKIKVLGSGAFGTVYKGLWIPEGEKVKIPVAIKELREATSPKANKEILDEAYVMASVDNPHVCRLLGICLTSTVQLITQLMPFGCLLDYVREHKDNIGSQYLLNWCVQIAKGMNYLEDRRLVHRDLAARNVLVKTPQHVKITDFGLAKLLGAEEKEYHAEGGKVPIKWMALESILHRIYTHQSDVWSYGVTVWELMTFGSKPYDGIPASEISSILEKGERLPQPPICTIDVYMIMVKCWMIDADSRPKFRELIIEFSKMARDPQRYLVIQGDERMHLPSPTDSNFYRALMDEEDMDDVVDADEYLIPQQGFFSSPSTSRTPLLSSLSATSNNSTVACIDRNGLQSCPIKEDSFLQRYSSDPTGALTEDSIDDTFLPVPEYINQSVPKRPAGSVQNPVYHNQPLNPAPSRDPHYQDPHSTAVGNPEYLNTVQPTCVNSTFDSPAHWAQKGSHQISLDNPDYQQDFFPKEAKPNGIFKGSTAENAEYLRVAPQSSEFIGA

[6] = biological target: Epidermal growth factor receptor (Homo sapiens, UniProt P00533, C797S/L858R/T790M); assay: Inhibition of wild type EGFR L858R/T790M/C797S mutant (unknown origin) using Poly (Glu, Tyr) as substrate after 40 mins by kinase-Glo luminescence assay
Chain of Epidermal growth factor receptor (Homo sapiens, UniProt P00533, C797S/L858R/T790M) (P00533 25-1210 T790M/C797S/L858R limits assumed): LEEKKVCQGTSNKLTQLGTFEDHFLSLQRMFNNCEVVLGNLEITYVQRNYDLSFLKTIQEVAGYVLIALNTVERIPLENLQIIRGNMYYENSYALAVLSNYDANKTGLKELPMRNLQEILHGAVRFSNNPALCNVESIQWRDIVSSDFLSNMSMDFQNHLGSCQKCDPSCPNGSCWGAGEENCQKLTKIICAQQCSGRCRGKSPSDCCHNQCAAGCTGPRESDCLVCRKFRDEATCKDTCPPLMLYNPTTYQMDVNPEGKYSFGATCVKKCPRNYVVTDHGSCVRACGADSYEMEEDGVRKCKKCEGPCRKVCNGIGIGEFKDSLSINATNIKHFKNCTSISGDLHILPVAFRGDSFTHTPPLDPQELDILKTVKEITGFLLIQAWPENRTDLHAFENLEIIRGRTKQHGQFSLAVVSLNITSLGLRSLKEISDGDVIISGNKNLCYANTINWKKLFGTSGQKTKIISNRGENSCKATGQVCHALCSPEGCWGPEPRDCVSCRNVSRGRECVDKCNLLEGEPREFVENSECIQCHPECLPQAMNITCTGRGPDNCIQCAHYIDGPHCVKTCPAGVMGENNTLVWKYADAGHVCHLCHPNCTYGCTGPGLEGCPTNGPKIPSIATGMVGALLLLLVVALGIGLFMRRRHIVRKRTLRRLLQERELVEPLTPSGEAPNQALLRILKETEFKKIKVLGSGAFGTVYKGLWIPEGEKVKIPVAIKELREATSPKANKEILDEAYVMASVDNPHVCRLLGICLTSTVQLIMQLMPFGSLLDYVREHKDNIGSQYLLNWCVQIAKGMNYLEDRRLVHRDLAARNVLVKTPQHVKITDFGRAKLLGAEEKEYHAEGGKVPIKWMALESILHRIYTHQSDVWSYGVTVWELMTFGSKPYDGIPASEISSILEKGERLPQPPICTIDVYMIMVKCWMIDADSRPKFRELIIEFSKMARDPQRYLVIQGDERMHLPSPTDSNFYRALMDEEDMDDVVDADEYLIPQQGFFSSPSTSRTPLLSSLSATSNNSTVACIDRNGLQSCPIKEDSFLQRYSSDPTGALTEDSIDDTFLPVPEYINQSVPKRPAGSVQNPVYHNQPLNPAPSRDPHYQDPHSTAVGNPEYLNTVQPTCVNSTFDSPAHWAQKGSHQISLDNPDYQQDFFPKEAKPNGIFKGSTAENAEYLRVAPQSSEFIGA

[7] = system: HCC827; assay: Antiproliferative activity against human HCC827 cells harboring EGFR E746-A750 deletion mutant after 72 hrs by MTT assay; type: functional, cell-based; conditions: HCC827, 72 h
[8] = system: HCC827; assay: Induction of apoptosis in human HCC827 cells harboring EGFR E746-A750 deletion mutant assessed as late apoptotic cells at 3 uM after 24 hrs by Annexin V-FITC/propidium iodide staining based flow cytometry (reference value: 27.14%); type: functional
[9] = system: HCC827; assay: Induction of apoptosis in human HCC827 cells harboring EGFR E746-A750 deletion mutant assessed as early apoptotic cells at 3 uM after 24 hrs by Annexin V-FITC/propidium iodide staining based flow cytometry (reference value: 1.34%); type: functional
[10] = system: Epidermal growth factor receptor (Homo sapiens), P00533 [UNDEFINED MUTATION]; assay: Inhibition of EGFR E746-A750 deletion mutant in human HCC827 cells assessed as reduction in EGFR phosphorylation after 8 hrs by Western blot analysis; type: cell-based
Chain of Epidermal growth factor receptor (Homo sapiens), P00533 [UNDEFINED MUTATION] (P00533 whole entry, looked up, stated change not applied): as the sequence (P00533 whole entry) above

[11] = system: Epidermal growth factor receptor (Homo sapiens), P00533 [UNDEFINED MUTATION]; assay: Inhibition of EGFR E746-A750 deletion mutant in human HCC827 cells assessed as reduction in EGFR phosphorylation at 3.33 uM after 8 hrs by Western blot analysis; type: cell-based
[12] = system: Epidermal growth factor receptor (Homo sapiens), P00533 [UNDEFINED MUTATION]; assay: Inhibition of EGFR E746-A750 deletion mutant in human HCC827 cells assessed as reduction in ERK phosphorylation at 3.33 uM after 8 hrs by Western blot analysis; type: cell-based

Structure (SMILES): CN(C)C1CCN(c2ccc(Nc3cc4c(N5CCCC5)nc(Nc5ccccc5)nc4cn3)nc2)CC1
IC50 [1]: 1.6 nM | IC50 [2]: 790 nM | IC50 [3]: 65.6 nM | IC50 [4]: 740 nM | IC50 [5]: 5.5 nM | IC50 [6]: 62.2 nM | IC50 [7]: 650 nM

Structure (SMILES): CN1CCN(c2ccc(Nc3cc4c(N5CCCC5)nc(Nc5ccccc5)nc4cn3)nc2)CC1
IC50 [1]: 2.3 nM | IC50 [2]: 2470 nM | IC50 [3]: 85 nM | IC50 [4]: 8700 nM | IC50 [5]: 4.4 nM | IC50 [7]: 1350 nM

Structure (SMILES): CN(C)C1CCN(c2ccc(Nc3cc4c(N5CCOCC5)nc(Nc5cccnc5)nc4cn3)nc2)CC1
IC50 [2]: 12400 nM | IC50 [7]: 1820 nM

Structure (SMILES): Cn1cc(Nc2cc3c(N4CCOCC4)nc(Nc4ccccc4)nc3cn2)cn1
IC50 [7]: > 10000 nM

Structure (SMILES): CN(C)C1CCN(c2ccc(Nc3cc4c(N5CCOCC5)nc(Oc5cccnc5)nc4cn3)nc2)CC1
IC50 [2]: > 10000 nM | IC50 [7]: 2510 nM

Structure (SMILES): CN(C)C1CCN(c2ccc(Nc3cc4c(N5CCOCC5)nc(Nc5ccccn5)nc4cn3)nc2)CC1
IC50 [2]: 2650 nM | IC50 [7]: 1660 nM

Structure (SMILES): CN(C)CCN(C)c1nc(Nc2ccc(F)cc2)nc2cnc(Nc3ccc(N4CCC(N(C)C)CC4)cn3)cc12
IC50 [2]: 900 nM | IC50 [4]: 830 nM | IC50 [6]: 24.7 nM | IC50 [7]: 450 nM

Structure (SMILES): CN1CCN(c2ccc(Nc3cc4c(N5CCCCC5)nc(Nc5ccccc5)nc4cn3)nc2)CC1
IC50 [1]: 1.1 nM | IC50 [2]: 2050 nM | IC50 [3]: 45 nM | IC50 [4]: 1330 nM | IC50 [5]: 1.1 nM | IC50 [6]: 23 nM | IC50 [7]: 270 nM

Structure (SMILES): CN(C)C1CCN(c2ccc(Nc3cc4c(N5CCOCC5)nc(NCc5cccnc5)nc4cn3)nc2)CC1
IC50 [7]: > 10000 nM

Structure (SMILES): CN(C)C1CCN(c2ccc(Nc3cc4c(N5CCOCC5)nc(Nc5ccc(F)c(Cl)c5)nc4cn3)nc2)CC1
IC50 [2]: 1160 nM | IC50 [4]: 970 nM | IC50 [7]: 390 nM

Structure (SMILES): CN1CCN(c2ccc(Nc3cc4c(N5CCCC5)nc(Nc5ccc(F)c(Cl)c5)nc4cn3)nc2)CC1
IC50 [2]: 520 nM | IC50 [7]: 1390 nM

Structure (SMILES): CN(C)C1CCN(c2ccc(Nc3cc4c(N5CCCCC5)nc(Nc5ccccc5)nc4cn3)nc2)CC1
IC50 [1]: 4.9 nM | IC50 [2]: 1020 nM | IC50 [3]: 23.2 nM | IC50 [4]: 540 nM | IC50 [5]: 0.9 nM | IC50 [6]: 15 nM | IC50 [7]: 240 nM

Structure (SMILES): CN1CCN(c2ccc(Nc3cc4c(N5CCOCC5)nc(Nc5ccccc5)nc4cn3)nc2)CC1
IC50 [2]: 1280 nM | IC50 [4]: 1020 nM | IC50 [7]: 200 nM

Structure (SMILES): CN1CCN(c2ccc(Nc3cc4c(N5CCCC5)nc(Nc5ccccc5)nc4cn3)cc2)CC1
IC50 [7]: > 10000 nM

Structure (SMILES): CN(C)C1CCN(c2ccc(Nc3cc4c(N5CCOCC5)nc(OCC5CCOCC5)nc4cn3)nc2)CC1
IC50 [2]: > 10000 nM | IC50 [7]: > 10000 nM

Structure (SMILES): CN1CCN(c2ccc(Nc3cc4c(N(C)C)nc(Nc5ccccc5)nc4cn3)cc2)CC1
IC50 [7]: > 10000 nM

Structure (SMILES): CN(C)C1CCN(c2ccc(Nc3cc4c(N5CCOCC5)nc(Nc5cccc(C(F)(F)F)c5)nc4cn3)nc2)CC1
IC50 [2]: 680 nM | IC50 [4]: 740 nM | IC50 [7]: 890 nM

Structure (SMILES): CN1CCN(c2ccc(Nc3cc4c(N5CCOCC5)nc(Nc5cccc(C(F)(F)F)c5)nc4cn3)nc2)CC1
IC50 [7]: > 10000 nM

Structure (SMILES): CN(C)C1CCN(c2ccc(Nc3cc4c(N5CCOCC5)nc(NCc5ccccn5)nc4cn3)nc2)CC1
IC50 [2]: > 10000 nM | IC50 [7]: 7900 nM

Structure (SMILES): C=CC(=O)Nc1cc(Nc2nccc(-c3cn(C)c4ccccc34)n2)c(OC)cc1N(C)CCN(C)C [OSIMERTINIB]
Activity [8]: 68.1% | Activity [9]: 8.28% | IC50 [7]: 27 nM

Further lines, with some results ahead:

IC50 [1]: 2.5 nM | IC50 [2]: 1670 nM | IC50 [3]: 28.8 nM | IC50 [4]: 530 nM | IC50 [5]: 1.5 nM | IC50 [6]: 28 nM | IC50 [7]: 310 nM
Structure (SMILES): CN(C)C1CCN(c2ccc(Nc3cc4c(N5CCOCC5)nc(Nc5ccc(F)cc5)nc4cn3)nc2)CC1

IC50 [1]: 3.2 nM | IC50 [2]: 420 nM | IC50 [3]: 44.1 nM | IC50 [4]: 690 nM | IC50 [5]: 2.1 nM | IC50 [6]: 82.9 nM | IC50 [7]: 64 nM
Structure (SMILES): CN(C)C1CCN(c2ccc(Nc3cc4c(N5CCC(CO)CC5)nc(Nc5ccccc5)nc4cn3)nc2)CC1

IC50 [1]: 2.1 nM | IC50 [2]: 980 nM | IC50 [3]: 30 nM | IC50 [4]: 1140 nM | IC50 [5]: 0.9 nM | IC50 [6]: 53.6 nM | IC50 [7]: 350 nM
Structure (SMILES): CN(C)C1CCN(c2ccc(Nc3cc4c(N5CCOCC5)nc(Nc5ccc(F)cc5F)nc4cn3)nc2)CC1

IC50 [1]: 1.1 nM | IC50 [2]: 400 nM | IC50 [3]: 34 nM | inhibition [10]: Dose-dependent effect | IC50 [4]: 1060 nM | IC50 [5]: 10.4 nM | inhibition [11]: inactive | IC50 [6]: 7.2 nM | IC50 [7]: 44 nM | inhibition [12]: inactive
Structure (SMILES): CN(C)C1CCN(c2ccc(Nc3cc4c(N5CCC(CO)CC5)nc(Nc5ccc(F)cc5)nc4cn3)nc2)CC1
Activity [8]: 74.26% | Activity [9]: 6.21%

IC50 [2]: > 10000 nM | IC50 [7]: 6910 nM
Structure (SMILES): CN(C)C1CCN(c2ccc(Nc3cc4c(N5CCOCC5)nc(OC5CCOCC5)nc4cn3)nc2)CC1

IC50 [2]: 820 nM | IC50 [4]: 1300 nM | IC50 [7]: 1890 nM
Structure (SMILES): CN(C)CCN(C)c1ccc(Nc2cc3c(N4CCCC4)nc(Nc4ccccc4)nc3cn2)nc1

IC50 [2]: 550 nM | IC50 [4]: 600 nM | IC50 [6]: 34.8 nM | IC50 [7]: 130 nM
Structure (SMILES): CN1CCN(c2nc(Nc3ccc(F)cc3)nc3cnc(Nc4ccc(N5CCC(N(C)C)CC5)cn4)cc23)CC1

IC50 [1]: 3.9 nM | IC50 [2]: 680 nM | IC50 [3]: 57.7 nM | IC50 [4]: 550 nM | IC50 [5]: 4.6 nM | IC50 [6]: 54.1 nM | IC50 [7]: 110 nM
Structure (SMILES): CN(C)C1CCN(c2ccc(Nc3cc4c(N5CCOCC5)nc(Nc5ccccc5)nc4cn3)nc2)CC1
Activity [8]: 64.85% | Activity [9]: 9.32%

IC50 [2]: 2170 nM | IC50 [7]: 3660 nM
Structure (SMILES): CN1CCN(c2ccc(Nc3cc4c(N5CCCC5)nc(Nc5cnn(C)c5)nc4cn3)nc2)CC1

IC50 [2]: 590 nM | IC50 [4]: 690 nM | IC50 [6]: 51.3 nM | IC50 [7]: 240 nM
Structure (SMILES): CN(CCO)c1nc(Nc2ccccc2)nc2cnc(Nc3ccc(N4CCC(N(C)C)CC4)cn3)cc12

IC50 [2]: 7350 nM | IC50 [4]: > 10000 nM | IC50 [7]: 1160 nM
Structure (SMILES): CN1CCN(c2ccc(Nc3cc4c(N(C)C)nc(Nc5ccccc5)nc4cn3)nc2)CC1

IC50 [2]: 7160 nM | IC50 [7]: 1640 nM
Structure (SMILES): CN(C)C1CCN(c2ccc(Nc3cc4c(N5CCOCC5)nc(NCc5ccccc5)nc4cn3)nc2)CC1

IC50 [2]: 300 nM | IC50 [4]: 420 nM | IC50 [6]: 51.9 nM | IC50 [7]: 80 nM
Structure (SMILES): CN(CCCO)c1nc(Nc2ccc(F)cc2)nc2cnc(Nc3ccc(N4CCC(N(C)C)CC4)cn3)cc12

IC50 [2]: > 10000 nM | IC50 [4]: > 10000 nM | IC50 [7]: 1010 nM
Structure (SMILES): CN1CCN(c2ccc(Nc3cc4c(N5CCCC5)nc(Nc5cccc(F)c5)nc4cn3)nc2)CC1

IC50 [7]: 5430 nM
Structure (SMILES): CN1CCN(c2ccc(Nc3cc4c(N5CCOCC5)nc(Nc5cccnc5)nc4cn3)nc2)CC1
